For the molecule `CCOC(=O)c1cc(CC)sc1NC(=O)CCl`, the melting point fell in the range of 74 to 76 °C.

`O=C(O)Cc1ccc([N+](=O)[O-])cc1Br` gave a melting point of 164 to 166 °C.

`CC(C)CCNS(=O)(=O)c1ccc(Cl)nc1`: the melting point lay in the range of 91 to 93 °C.

Turning to `O=C(O)c1cc[nH]c(=O)c1`, the melting point was in the range of 299 to 301 °C.

Regarding `Cc1n[nH]cc1C=O`, the melting point lay within 104 to 106 °C.

Molecule `O=C(O)CCc1nnc(-c2cc(F)ccc2Br)o1` yielded a melting point of 153 to 155 °C.

Consider `Cc1cccc(F)c1C#N`, for which the melting point lay within 45 to 47 °C.

`NC(CC(=O)O)c1cccc(Cl)c1` (stereo not drawn): the melting point fell in the range of 227 to 229 °C.

On to `O=C1CCCOc2cc(F)ccc21`, for which the melting point was in the range of 37 to 39 °C.

`O=C(O)c1ccc(-n2cccn2)c(F)c1` showed a melting point of 235 to 237 °C.

Molecule `COc1ccc(CCc2nnc(N)o2)cc1` gave a melting point of 216 to 218 °C.

Consider `COc1ccc2c(c1)c(C(=O)O)c(C)n2C1CC1`, for which the melting point is 199 to 201 °C.

In the case of `CCCOc1ccc(CNC(=O)CCl)cc1`, the melting point is 109 to 111 °C.

Regarding `O=C(O)Cc1coc(-c2ccc(F)c(F)c2)n1`, the melting point fell in the range of 144 to 146 °C.

Regarding `Cc1nc2ccc(C#N)cc2s1`, the melting point was 129 to 131 °C.

As to `O=C(O)c1cc2c(F)cc(F)cc2[nH]1`, the melting point is 252 to 254 °C.

With `CSc1nc2[nH]cnc(=O)c2s1`, the melting point lay within 269 to 271 °C.

As to `Cc1[nH]n(C)c(=N)c1C`, the melting point lay in the range of 109 to 111 °C.

In turn, `COC(=O)c1cc(NC(=O)C(C)Cl)cc(C(=O)OC)c1` (stereo not drawn) registered a melting point of 126 to 128 °C.

Take `O=C(O)CCN1C(=O)NC2(CCCCC2)C1=O`: the melting point fell in the range of 100 to 102 °C.

`CN(C)c1ccc(/C=C/C(=O)c2ccc([N+](=O)[O-])cc2)cc1` showed a melting point of 213 to 215 °C.

`CCOC(=O)c1cnc2ccccc2c1-n1cncn1` gave a melting point of 84 to 86 °C.

The molecule `CCCOc1ccc(CC(=O)O)cc1OCCC` yielded a melting point of 59 to 61 °C.

Regarding `O=Cc1ccc2cn[nH]c2c1`, the melting point was 179 to 181 °C.

In turn, `CC(=O)Nc1ccc(CCO)cc1` gave a melting point of 106 to 108 °C.

For the molecule `NC(=O)CNS(=O)(=O)c1ccc(F)c(C(=O)O)c1`, the melting point lay in the range of 201 to 203 °C.

Regarding `Nc1cccnc1Nc1ccc2c(c1)C(=O)NC2=O`, the melting point fell in the range of 269 to 271 °C.

`ON=C1CCN(Cc2ccccc2)CC1`: the melting point is 126 to 128 °C.

Molecule `COC(=O)CNc1ccccc1` came in with a melting point of 45 to 47 °C.

The molecule `N#CC(C(=O)CCl)=C1Nc2ccccc2N1` returned a melting point of 285 to 287 °C.

On to `CC(=O)c1cccc(-c2ccncc2)c1`, for which the melting point is 64 to 66 °C.

`O=C1Nc2ccccc2N2CCC12` (stereo not drawn): the melting point lay within 169 to 171 °C.

Regarding `O=C(CCl)N1CCN(S(=O)(=O)c2ccccc2Cl)CC1`, the melting point lay within 215 to 217 °C.

Turning to `CCCC(C)C(N)C(=O)O` (stereo not drawn), the melting point lay in the range of 259 to 261 °C.

`Oc1cnc2cc(Cl)c(Cl)cc2n1` gave a melting point of 299 to 301 °C.

The molecule `CC(C)(C)c1ccc(C2(N)CCCC2)cc1` came in with a melting point of 120 to 122 °C.

The molecule `CC(NC(=O)CC1CCCCC1)C(=O)O` (stereo not drawn) showed a melting point of 156 to 158 °C.

`Cc1cc(C(=O)CCl)c(C)n1-c1ccccn1`: the melting point lay in the range of 76 to 78 °C.

In turn, `O=S1(=O)NN=Cc2ccccc21` had a melting point of 141 to 143 °C.

Molecule `Cc1ccc(NC(=O)C2CCCNC2)nc1` (stereo not drawn) came in with a melting point of 144 to 146 °C.

Turning to `c1ccc2c(c1)CN1CCCC1CN2` (stereo not drawn), the melting point was in the range of 107 to 109 °C.

Turning to `CN(c1ccc(C(=O)O)cc1)C1CCCCC1`, the melting point was in the range of 148 to 150 °C.

The molecule `O=C(O)c1oc2cc(Cl)ccc2c1-c1ccccc1` registered a melting point of 229 to 231 °C.

The molecule `O=C(CC(F)(F)F)c1ccc(Cl)cc1` yielded a melting point of 39 to 41 °C.

`O=C(CCl)NCc1ccccc1CN1CCCC1=O` gave a melting point of 125 to 127 °C.

The molecule `CCn1cc(S(=O)(=O)Cl)nc1C` displayed a melting point of 65 to 67 °C.

Turning to `CNS(=O)(=O)c1ccc(Cl)s1`, the melting point fell in the range of 45 to 47 °C.

`Cc1oc(C)c(C(=O)O)c1C`: the melting point is 131 to 133 °C.

In turn, `Nc1nccnc1Br` showed a melting point of 129 to 131 °C.

`O=C(O)COc1ccc(-c2ccccc2)cc1`: the melting point was in the range of 195 to 197 °C.

Consider `CN1CCN(C(=O)Cn2cc(N)cn2)CC1`, for which the melting point was 119 to 121 °C.

`NS(=O)(=O)c1cc(C(=O)O)cc2c1CCCC2` came in with a melting point of 275 to 277 °C.

`O=C(O)CCc1nc2ccccc2o1` gave a melting point of 110 to 112 °C.

In turn, `Nc1ccc(-n2ncc3ccccc32)cc1` showed a melting point of 158 to 160 °C.

In turn, `NS(=O)(=O)c1ccc(Cl)nc1` had a melting point of 154 to 156 °C.

`O=C(O)C1CC(=O)N(Cc2cccc(C(F)(F)F)c2)C1` (stereo not drawn) came in with a melting point of 109 to 111 °C.

On to `O=C(Cl)c1cc(Cl)nc2ccccc12`, for which the melting point was 85 to 87 °C.

In turn, `CN(C)S(=O)(=O)c1cn[nH]c1` yielded a melting point of 132 to 134 °C.

`CCOC(=O)c1ncn(-c2ccccc2)n1` gave a melting point of 49 to 51 °C.

`CCOC(=O)c1c(N)nn2cc[nH]c12` came in with a melting point of 168 to 170 °C.

`CN1C(=O)CCC(C(N)=O)C1c1ccc(C(F)(F)F)cc1` (stereo not drawn) displayed a melting point of 239 to 241 °C.

For the molecule `NNC(=O)CCc1ccc(S(=O)(=O)N2CCOCC2)cc1`, the melting point lay in the range of 128 to 130 °C.

`O=C(NCc1ccc2c(c1)OCO2)C(Cl)c1ccccc1` (stereo not drawn) returned a melting point of 104 to 106 °C.

Take `C=CCNS(=O)(=O)c1cc(C(=O)O)ccc1F`: the melting point was 164 to 166 °C.

`Nc1nccc(-c2ccccc2)n1` had a melting point of 162 to 164 °C.

Turning to `CCc1noc(-c2ccc(C)c(N)c2)n1`, the melting point is 77 to 79 °C.

As for `O=C(O)c1cc(C2CC2)nc2ccc(F)cc12`, the melting point lay in the range of 196 to 198 °C.

Take `CC(C)Oc1ccc(C#N)cc1`: the melting point is 50 to 52 °C.

Take `N#CCN1C(=O)c2ccccc2C1=O`: the melting point lay within 125 to 127 °C.

As to `Cc1nnc(CCl)o1`, the melting point was 32 to 40 °C.

With `CN(C)c1cccc(N)n1`, the melting point lay in the range of 41 to 43 °C.

Turning to `CC(C)(C)NS(=O)(=O)c1cc(N)c(F)cc1F`, the melting point fell in the range of 109 to 111 °C.

The molecule `O=C(O)c1ccnc(Oc2ccccc2)c1` showed a melting point of 241 to 243 °C.

Molecule `COC(=O)Nc1ccc(CO)cc1` returned a melting point of 79 to 81 °C.

In turn, `Cc1ccc(-c2nc(C(=O)O)cs2)o1` yielded a melting point of 194 to 196 °C.

In turn, `Cc1ccc(N(C)C(C)C)c(C(=O)O)c1` displayed a melting point of 69 to 71 °C.

As for `Cc1c(NC(=O)CCCl)cccc1[N+](=O)[O-]`, the melting point was 131 to 133 °C.

With `Oc1ccc(OCc2ccncc2)cc1`, the melting point was in the range of 179 to 181 °C.

`O=C(O)C1CC(c2cc(F)ccc2F)=NO1` (stereo not drawn): the melting point lay in the range of 135 to 137 °C.

Turning to `NC(=S)c1ccc(Br)s1`, the melting point was 169 to 171 °C.

`O=C(O)CCC(=O)c1csc2ccccc12` displayed a melting point of 139 to 141 °C.

As to `O=C(O)c1ccc(-c2cc(F)c(F)c(F)c2)cc1`, the melting point fell in the range of 264 to 266 °C.

For `CS(=O)(=O)c1ccc(NC(N)=O)cc1`, the melting point was 224 to 226 °C.

Molecule `N#CCCn1cc(C(=O)O)c(-c2ccc([N+](=O)[O-])cc2)n1` returned a melting point of 220 to 222 °C.

The molecule `CCOC(=O)c1c[nH]n(C)c1=N` showed a melting point of 95 to 97 °C.

As to `Cc1ccc2c(C(=O)CC#N)c[nH]c2c1`, the melting point is 268 to 270 °C.

The molecule `CC(C)(C(=O)O)C1CCCCC1` yielded a melting point of 64 to 66 °C.

`C#CCOc1ccc(Br)cc1C=O` registered a melting point of 94 to 98 °C.

For the molecule `Cn1cnnc1-c1ccccc1`, the melting point lay within 114 to 116 °C.

In the case of `CCC(=O)Nc1ccc(C)c(N)c1`, the melting point lay within 121 to 123 °C.

With `COC(=O)CSc1cncc(Cl)n1`, the melting point was 32 to 34 °C.

`O=C(Nc1cccc(F)c1)OCC(F)(F)F` gave a melting point of 50 to 52 °C.

The molecule `Nc1cccc2c1CN(c1nccs1)C2` gave a melting point of 119 to 121 °C.

On to `COCCn1c(N)cc(=O)[nH]c1=O`, for which the melting point was in the range of 90 to 92 °C.

Regarding `Cc1c(N)cccc1CS(C)(=O)=O`, the melting point lay in the range of 149 to 151 °C.

`NNC(=O)CSc1ccc(Cl)cc1` showed a melting point of 100 to 102 °C.

`Nc1nc(-c2ccccc2Cl)ns1` showed a melting point of 119 to 121 °C.

In the case of `CC(C)(C)OC(=O)NC(C(N)=NO)c1ccccc1` (stereo not drawn), the melting point fell in the range of 177 to 179 °C.

`O=C(O)C1(S(=O)(=O)c2ccc(Cl)cc2)CC1` returned a melting point of 185 to 187 °C.

In the case of `O=C(O)c1cnc2n1CCCC2`, the melting point was 219 to 221 °C.

For `Cc1cs/c(=N\c2ccccc2)n1C1CCCC1`, the melting point is 51 to 53 °C.

Molecule `O=C(O)CCn1ccccc1=O` came in with a melting point of 146 to 148 °C.

The molecule `O=C(O)CNc1ccccc1[N+](=O)[O-]` returned a melting point of 80 to 82 °C.

In the case of `Sc1nnc(NC2CC2)s1`, the melting point lay in the range of 170 to 172 °C.

`Nc1cc(C2CCOCC2)no1` registered a melting point of 159 to 161 °C.

As to `CC(C(=O)c1ccc(Br)cc1)N1C(=O)CCC1=O` (stereo not drawn), the melting point fell in the range of 171 to 173 °C.

`O=Cc1cccc(OC(C(=O)O)c2ccccc2)c1` (stereo not drawn) had a melting point of 98 to 100 °C.

Molecule `CCN1CCCC1CN1CC(C(=O)O)CC1=O` (stereo not drawn) displayed a melting point of 166 to 168 °C.

`Sc1nc(C2CC2)nc2ccccc12` gave a melting point of 219 to 221 °C.

For the molecule `CC(C)(C)c1ccc(C(O)CN)cc1` (stereo not drawn), the melting point was in the range of 125 to 127 °C.

Molecule `CC1CCCC(C)N1S(=O)(=O)c1ccc(N)cc1` (stereo not drawn) displayed a melting point of 215 to 217 °C.

In turn, `COc1ccc(CC(=O)O)c(Cl)c1` came in with a melting point of 118 to 120 °C.

In turn, `CCOC(=O)c1[nH]c(C)c(C(=O)OCC)c1CC` yielded a melting point of 108 to 110 °C.

Molecule `NC(=O)COc1cccc(CO)c1` gave a melting point of 116 to 118 °C.

For the molecule `O=Cc1ccc(N2CCNCC2)s1`, the melting point fell in the range of 59 to 63 °C.

As to `CNc1ccc(C=O)cc1[N+](=O)[O-]`, the melting point was in the range of 118 to 120 °C.

Regarding `CCCNCC(=O)Nc1ccc(Cl)cc1`, the melting point was in the range of 44 to 46 °C.

The molecule `N#Cc1ccc(-c2ccncc2)[nH]c1=O` returned a melting point of 339 to 341 °C.

With `Clc1nccn2nnnc12`, the melting point fell in the range of 99 to 101 °C.

`COc1ccc(C(=O)CBr)cc1OC`: the melting point was in the range of 83 to 85 °C.

Take `O=C(O)c1cn(-c2ccccc2)nc1-c1cccs1`: the melting point lay in the range of 197 to 199 °C.

As for `CCn1nc(C)c(C(C)=O)c1C`, the melting point fell in the range of 30 to 32 °C.

For `Nc1ccccc1C(=O)NCc1ccccc1`, the melting point lay in the range of 125 to 127 °C.

The record behind these values is a melting point compilation (Tetko et al.).
